Test results reported in PMC10526194 (2023).

Columns and labels:
[1] = tested on: 71-mer aptamer (DNA, aptamer) GGAATTCGCTAGCACGTTGACGCTGGTGCCCGGTTGTGGTGCGAGTGTTGTGTGGATCCGAGCTCCACGTG; assay: CD titration; details: 100 mM Na+, 5 mM K+, 2 mM Mg2+, 1 mM Ca2+; 20 mM Tris pH 7.6, 25 °C; 5 µM aptamer, 2.5-40 µM OTC
[2] = tested on: thiol-modified 40-mer aptamer (DNA, aptamer) ACGTTGACGCTGGTGCCCGGTTGTGGTGCGAGTGTTGTGT; assay: QCM with dissipation (frequency decrease); details: 100 mM Na+, 5 mM K+, 2 mM Mg2+, 1 mM Ca2+; pH 7.1 and 9.1, 25 °C; 20 and 40 µM OTC
[3] = tested on: 40-mer aptamer (DNA, aptamer) ACGTTGACGCTGGTGCCCGGTTGTGGTGCGAGTGTTGTGT; assay: CD thermal denaturation (250 nm free, 270 nm bound); details: 100 mM Na+, 5 mM K+, 2 mM Mg2+, 1 mM Ca2+; 20 mM Tris pH 7.1; 40 µM OTC, 5 µM aptamer; derived from two Tm (41 to 80 °C)
[4] = tested on: 40-mer aptamer (DNA, aptamer) ACGTTGACGCTGGTGCCCGGTTGTGGTGCGAGTGTTGTGT; assay: CD titration; details: 100 mM Na+, 5 mM K+, 2 mM Mg2+, 1 mM Ca2+; 20 mM Tris pH 7.6, 25 °C; 5 µM aptamer, 2.5-40 µM OTC

binding [1]: yes
binding [2]: yes
Tm shift (ΔTm) [3]: 39 °C
binding [4]: yes
Compound: CN(C)[C@@H]1C(=O)C(C(N)=O)=C(O)[C@@]2(O)C(=O)C3=C(O)c4c(O)cccc4[C@@](C)(O)[C@H]3[C@H](O)[C@@H]12
